Broadly, the IC50 is the concentration that gives 50% inhibition. By inhibition is commonly meant the relative decrease from the control value, in per cent. A word on the CC50: it is the concentration giving 50% cytotoxicity. A word on the Ki: it is the dissociation constant of the complex between target and ligand, obtained from inhibition or displacement.

“Also recorded” adds a separate entry of the source. Like-named read-outs stand apart in the source and are kept apart here.

Data set [1] addresses T1, hGSTP1-1 (Homo sapiens, UniProt P09211).
T1 construct: made in house; host or cells: E. coli
The experiment in a line: hGSTP1-1 enzyme activity/inhibition assay (CDNB and GSH substrates, 340 nm). Type of data set: biochemical. The settings on record: for Enzyme Inhibition (%) / IC50 / inhibition at 10 µM: mean ± SE, triplicate; for IC50: concentration-response inhibition, read-out: IC50 towards hGSTP1-1; for inhibition at 10 µM: pH 6.5, 10 μM compound. Set-up: key to Enzyme Inhibition (%) (symbol): *: Coumarin derivative 5e did not exhibit significant inhibition. The method, then: Determination of hGSTP1-1 activity was carried out in potassium phosphate buffer (100 mM, pH 6.5, 1 mL total volume), at 25°C using as substrates CDNB and GSH. The reaction was monitoring at 340 nm for 120 s, as described previously. For inhibition analysis, coumarin derivatives were dissolved in DMSO (100 μΜ) and added to the assay mixture at 10 μΜ final concentration. The mixture was incubated at 25°C for 1 min, prior adding the enzyme sample. The IC50 values were determined from a graph of the remaining GST activity (%) against inhibitor concentration. GraphPad Prism 9.3.1 (GraphPad Prism Software, Inc.) was used for determination of IC50 values. Kinetic inhibition analysis was performed as previously described with minor modifications. Initial velocities using CDNB as a variable substrate (typically 14–1000 μM) were determined in the presence of constant concentration of GSH (2.5 mM) in the absence and presence of the coumarin derivative 5g (0–50 μM). Initial velocities using GSH as a variable substrate (typically 37.5–3750 μΜ) were determined in the presence of 1 mM CDNB in the absence and presence of the coumarin derivative 5g (0–50 μM). Enzyme assays were performed in triplicates and initial velocities were corrected for spontaneous reaction rates.

Data set [2] can be described thus: MTT cytotoxicity assay, DU-145. The data set is classed as cell-based. The settings on record: human, DU-145 cells, mean ± SE, triplicate, read-out: CC50 against DU-145. The protocol:
(§1) The MTT colorimetric assay was used to evaluate the in vitro cytotoxicity of 5a, 5f and 5g coumarin derivatives against PC3, DU-145 and MCF-7 cancer cell lines. Cancer cells were inoculated into a 96-well plate (initially at a density of 8 x 10^3 cells/well in 100 μL of culture medium) and were cultivated for 24 h, at 37°C in a CO2 incubator (5%). Different concentrations of 5a, 5f and 5g derivatives (1.5 μΜ to 200 μΜ), were added to cultures and incubated for 48 h. […] The culture medium was then replaced with 100 μL of MTT solution (1 mg/mL) and after 2 h incubation, the solution was aspirated and the produced formazan crystals were dissolved in isopropanol (100 μL). The absorbance was measured at 540 nm. Dose–cell viability graphs were created using GraphPad Prism 9.3.1 and the CC50 values were determined.
(In general: Tetrazolium assays rely on reduction of a dye to a coloured formazan, in cell work by metabolically active cells.)

Data set [3] in a line: MTT cytotoxicity assay, PC3. The data set is classed as cell-based. The settings on record: human, PC3 cells, mean ± SE, triplicate, read-out: CC50 against PC3. The protocol: as §1
A short description of data set [4]: MTT cytotoxicity assay, MCF-7. Type of data set: cell-based. As to conditions: human, MCF-7 cells, mean ± SE, triplicate, read-out: CC50 against MCF-7. The method, then: as §1
The target in data set [5] is T1, hGSTP1-1. Set-up: method as in doi:10.5505/tjb.2012.30301. The settings on record: cited from earlier work.
The subject of the next data set is HepG2 cells. Set-up: method as in PMID 29944015. The settings on record: read-out: IC50 towards HepG2 cells; cited from earlier work.
Setting [6] is: 10 μM compound, 25°C, pH 6.5, 10 µM.

T1 sequence (P09211 whole entry): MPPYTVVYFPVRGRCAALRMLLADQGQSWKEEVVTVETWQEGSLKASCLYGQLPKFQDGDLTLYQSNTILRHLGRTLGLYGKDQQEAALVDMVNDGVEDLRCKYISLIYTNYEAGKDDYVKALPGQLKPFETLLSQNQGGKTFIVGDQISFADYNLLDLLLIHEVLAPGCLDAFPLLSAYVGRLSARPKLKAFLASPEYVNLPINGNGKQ

On to `O=C(C=Cc1ccccc1)c1ccc(NS(=O)(=O)c2ccc3oc(=O)ccc3c2)cc1` [Compound 5a, N-(4-cinnamoylphenyl)-2-oxo-2H-chromene-6-sulfonamide], for which the “Enzyme Inhibition (%)” value on hGSTP1-1 [1] (setting [6]) turned out to be 84.6 ± 0.1%. Moreover, on hGSTP1-1 [1], the IC50 worked out at 16.3 µM. This compound also gave an inhibition at 10 µM on hGSTP1-1 [1] (25°C, pH 6.5) of over 85%. The CC50 at 48 h in data set [2] amounted to 71.4 ± 5.4 µM; in data set [3] it was 25.3 ± 2.2 µM; in data set [4], 46.8 ± 5.1 µM.
Regarding `Cc1ccc(C=CC(=O)c2ccc(NS(=O)(=O)c3ccc4oc(=O)ccc4c3)cc2)cc1` [Compound 5b, 2-oxo-N-(4-(3-(p-tolyl)acryloyl)phenyl)-2H-chromene-6-sulfonamide], testing at 10 µM against hGSTP1-1 [1] (25°C, pH 6.5) gave an inhibition of 62.8 ± 0.1%.
Same read-out and setting: as for `COc1ccc(C=CC(=O)c2ccc(NS(=O)(=O)c3ccc4oc(=O)ccc4c3)cc2)cc1` [Compound 5c, N-(4-(3-(4-methoxyphenyl)acryloyl)phenyl)-2-oxo-2H-chromene-6-sulfonamide], the figure is 67%; as for `COc1ccc(C=CC(=O)c2ccc(NS(=O)(=O)c3ccc4oc(=O)ccc4c3)cc2)c(OC)c1` [Compound 5d, N-(4-(3-(2,4-dimethoxyphenyl)acryloyl)phenyl)-2-oxo-2H-chromene-6-sulfonamide], 59.3 ± 0.1%.
For `COc1cc(C=CC(=O)c2ccc(NS(=O)(=O)c3ccc4oc(=O)ccc4c3)cc2)cc(OC)c1OC` [Compound 5e, 2-oxo-N-(4-(3-(3,4,5-trimethoxyphenyl)acryloyl)phenyl)-2H-chromene-6-sulfonamide], at hGSTP1-1 [1] (10 μM compound, 25°C, pH 6.5), the “Enzyme Inhibition (%) (symbol)” value is on record as “*” and the “Enzyme Inhibition (%)” value is on record as “no activity”.
As to `O=C(C=Cc1ccc(F)cc1)c1ccc(NS(=O)(=O)c2ccc3oc(=O)ccc3c2)cc1` [Compound 5f, N-(4-(3-(4-fluorophenyl)acryloyl)phenyl)-2-oxo-2H-chromene-6-sulfonamide], on hGSTP1-1 [1] (setting [6]), the “Enzyme Inhibition (%)” value turned out to be 86.9 ± 0.0%. Besides, the IC50 at hGSTP1-1 [1] was determined as 12.7 ± 0.7 µM. Also, the inhibition at 10 µM against hGSTP1-1 [1] (25°C, pH 6.5) was over 85%. The values for the CC50 at 48 h in data set [2], in data set [3] and in data set [4] were 47.3 ± 2.7 µM, 14.7 ± 0.9 µM and 24.7 ± 1.5 µM, respectively.
As for `O=C(C=Cc1ccc(Cl)cc1)c1ccc(NS(=O)(=O)c2ccc3oc(=O)ccc3c2)cc1` [Compound 5g, N-(4-(3-(4-chlorophenyl)acryloyl)phenyl)-2-oxo-2H-chromene-6-sulfonamide], at hGSTP1-1 [1] (setting [6]), the “Enzyme Inhibition (%)” value came to 87.5 ± 0.0%. The “inhibition constant Ki΄ (hGSTP1-1–CDNB complex)” value on hGSTP1-1 [1] (CDNB as variable substrate) is 19.25 ± 1.20 μΜ. Besides, the Ki is 4.69 ± 0.11 µM at hGSTP1-1 [1] (CDNB as variable substrate, read-out: inhibition constant Ki (free hGSTP1-1)) and 3.82 ± 0.16 µM on hGSTP1-1 [1] (GSH as variable substrate, read-out: inhibition constant Ki). In addition, the “inhibition constant Ki΄” value against hGSTP1-1 [1] (GSH as variable substrate) turned out to be 25.39 ± 0.60 μΜ. Further, the concentration for half-maximal inhibition (IC50) on hGSTP1-1 [1] is 12.2 ± 0.5 µM. The type of inhibition entry at hGSTP1-1 [1] (kinetic inhibition analysis, Lineweaver-Burk) is reported as “mixed-type inhibitor; also recorded: non-competitive, purely mixed-type inhibitor”. At hGSTP1-1 [1] (25°C, pH 6.5), this compound registered an inhibition at 10 µM of over 85%. The CC50 at 48 h in data set [2] amounted to 36.6 ± 2.7 µM; in data set [3] it was 11.9 ± 2.5 µM; in data set [4] it was 17.4 ± 2.9 µM.
Compound `O=C(C=Cc1ccc(Br)cc1)c1ccc(NS(=O)(=O)c2ccc3oc(=O)ccc3c2)cc1` [Compound 5h, N-(4-(3-(4-bromophenyl)acryloyl)phenyl)-2-oxo-2H-chromene-6-sulfonamide] registered an inhibition at 10 µM against hGSTP1-1 [1] (25°C, pH 6.5) of 71.1 ± 0.1%.
In the case of `O=C(C=Cc1ccc([N+](=O)[O-])cc1)c1ccc(NS(=O)(=O)c2ccc3oc(=O)ccc3c2)cc1` [Compound 5i, N-(4-(3-(4-nitrophenyl)acryloyl)phenyl)-2-oxo-2H-chromene-6-sulfonamide], the inhibition at 10 µM on hGSTP1-1 [1] (25°C, pH 6.5) was 45.4 ± 0.1%.
Consider `O=[N+]([O-])c1ccc(S(=O)(=O)Nc2ccc3c(c2)CC(Cc2ccc(Cl)cc2)=C3)cc1` [compound III], for which, at hGSTP1-1 [5], the IC50 was 10.2 µM.
As to `C/C(=N\Nc1nc(-c2ccccc2)cs1)c1ccc(NS(=O)(=O)c2ccc3oc(=O)ccc3c2)cc1` [compound II], the IC50 in the data set with HepG2 cells is 3.48 ± 0.28 µM.

(Values after PMC11324126, “Novel coumarin-6-sulfonamide-chalcone hybrids as glutathione transferase P1-1 inhibitors” (PLOS ONE, 2024).)
